≈ marks a conversion by molar mass, not a printed value.
Columns and labels:
Experiment in all cases: ≥ marks a high value that may be exact or a test limit, other limits are often not marked, values filed in µg/mL are converted to µM
Escherichia coli = tested on: Escherichia coli
Bacillus cereus = tested on: Bacillus cereus
Staphylococcus aureus = tested on: Staphylococcus aureus
Pseudomonas aeruginosa = tested on: Pseudomonas aeruginosa
[1] = tested on: Pseudomonas aeruginosa PAO1
Escherichia coli UB1005 = tested on: Escherichia coli UB1005
[2] = tested on: Staphylococcus aureus ATCC 25923

| Compound | MIC (Escherichia coli) | MIC (Bacillus cereus) | MIC (Pseudomonas aeruginosa) | other results |
| --- | --- | --- | --- | --- |
| CSCC[C@H](N)C(=O)N[C@H](C(=O)N[C@H](C(=O)N[C@@H](Cc1ccccc1)C(=O)N[C@@H](CO)C(=O)N[C@H](C(=O)N1CCC[C@H]1C(=O)N[C@@H](CCCCN)C(=O)N[C@@H](Cc1ccccc1)C(=O)N[C@@H](CCCCN)C(=O)N[C@@H](CO)C(=O)N[C@H](C(=O)N[C@H](C(=O)N[C@@H](C)C(=O)N[C@@H](CCCCN)C(=O)N[C@@H](CC(C)C)C(=O)N[C@@H](CC(C)C)C(=O)N[C@@H](CO)C(=O)N[C@@H](CO)C(=O)N[C@@H](C)C(=O)O)C(C)C)[C@@H](C)O)C(C)C)C(C)C)C(C)C [MVVFSVPKFKSTVAKLLSSA] | > 120 µM | ≥ 120 µM | – | – |
| CC(C)C[C@H](NC(=O)[C@H](C)NC(=O)[C@@H](NC(=O)CNC(=O)[C@H](CCCCN)NC(=O)[C@@H](NC(=O)[C@@H](NC(=O)[C@H](CO)NC(=O)[C@H](CO)NC(=O)CNC(=O)[C@@H](NC(=O)[C@@H]1CCCN1C(=O)[C@H](CCCCN)NC(=O)[C@@H](NC(=O)[C@@H](N)CO)C(C)C)C(C)C)C(C)C)C(C)C)[C@@H](C)O)C(=O)N[C@H](C(=O)N[C@@H](CCCCN)C(=O)N[C@@H](Cc1ccccc1)C(=O)N[C@@H](Cc1ccccc1)C(=O)NCC(=O)O)C(C)C [SVKPVGSSVVKGTALVKFFG] | > 128 µM | ≥ 128 µM | – | – |
| CC(C)C[C@H](NC(=O)[C@@H](N)Cc1ccccc1)C(=O)NCC(=O)N[C@H](C(=O)N[C@H](C(=O)N[C@@H](Cc1ccccc1)C(=O)N[C@@H](CCCCN)C(=O)NCC(=O)N[C@@H](C)C(=O)N[C@@H](CO)C(=O)N[C@@H](CCCCN)C(=O)N[C@H](C(=O)N[C@@H](Cc1ccccc1)C(=O)N1CCC[C@H]1C(=O)N[C@@H](C)C(=O)N[C@H](C(=O)N[C@@H](Cc1ccccc1)C(=O)NCC(=O)N[C@@H](CCCCN)C(=O)N[C@H](C(=O)O)C(C)C)C(C)C)C(C)C)C(C)C)C(C)C [FLGVVFKGASKVFPAVFGKV] | > 122 µM | ≥ 122 µM | – | MIC (Staphylococcus aureus): > 122 µM |
| CC[C@H](C)[C@H](NC(=O)[C@@H](NC(=O)[C@H](CCCCN)NC(=O)[C@H](C)NC(=O)[C@H](CC(C)C)NC(=O)[C@H](CCCCN)NC(=O)[C@H](CCCCN)NC(=O)CN)[C@@H](C)O)C(=O)N[C@@H](C)C(=O)N[C@@H](CCCCN)C(=O)N[C@@H](CCC(=O)O)C(=O)N[C@H](C(=O)N[C@@H](C)C(=O)N[C@@H](CCCCN)C(=O)N[C@@H](CCC(N)=O)C(=O)NCC(=O)N[C@@H](C)C(=O)N[C@@H](CCCCN)C(=O)N[C@@H](Cc1ccccc1)C(=O)N[C@@H](C)C(=O)O)C(C)C [GKKLAKTIAKEVAKQGAKFA] | 30.7 µM (≈ 64 µg/mL) | ≥ 123 µM | – | – |
| CC[C@H](C)[C@H](NC(=O)[C@H](Cc1ccccc1)NC(=O)[C@H](CO)NC(=O)[C@H](CCCCN)NC(=O)[C@H](Cc1c[nH]c2ccccc12)NC(=O)[C@@H](N)CCCCN)C(=O)N[C@@H](CCCCN)C(=O)N[C@@H](CCCCN)C(=O)N[C@@H](CC(C)C)C(=O)N[C@H](C(=O)N[C@@H](CO)C(=O)N[C@@H](CCCCN)C(=O)N[C@@H](Cc1ccccc1)C(=O)N[C@@H](CC(C)C)C(=O)N[C@@H](Cc1cnc[nH]1)C(=O)N[C@@H](CO)C(=O)N[C@@H](C)C(=O)N[C@@H](CC(N)=O)C(=O)N[C@@H](CCCCN)C(=O)N[C@@H](Cc1ccccc1)C(N)=O)[C@@H](C)O [KWKSFIKKLTSKFLHSANKF] | – | – | 2.56 µM (≈ 6.25 µg/mL) | – |
| CC(C)[C@H](NC(=O)CNC(=O)CNC(=O)[C@@H](NC(=O)[C@@H](N)Cc1ccccc1)C(C)C)C(=O)N[C@@H](C)C(=O)N[C@@H](CO)C(=O)N[C@@H](CCCCN)C(=O)N[C@H](C(=O)N[C@H](C(=O)N1CCC[C@H]1C(=O)N[C@@H](CO)C(=O)N[C@H](C(=O)N[C@@H](Cc1ccc(O)cc1)C(=O)N[C@@H](CS)C(=O)N[C@@H](CCCCN)C(=O)N[C@H](C(=O)N[C@@H](CO)C(=O)N[C@@H](CCCCN)C(=O)N[C@@H](CCCCN)C(=O)O)C(C)C)C(C)C)C(C)C)C(C)C [FVGGVASKVVPSVYCKVSKK] | > 123 µM | ≥ 123 µM | – | – |
| CC[C@H](C)[C@H](NC(=O)[C@@H](NC(=O)[C@H](C)NC(=O)[C@@H]1CCCN1C(=O)[C@@H](NC(=O)[C@@H](NC(=O)[C@H](CCCCN)NC(=O)[C@H](CO)NC(=O)[C@H](C)NC(=O)[C@H](CC(C)C)NC(=O)[C@H](CO)NC(=O)CNC(=O)[C@@H](NC(=O)[C@@H](NC(=O)CNC(=O)[C@@H](N)CC(C)C)C(C)C)C(C)C)C(C)C)C(C)C)C(C)C)C(=O)N[C@@H](CO)C(=O)N[C@@H](CCCCN)C(=O)N[C@H](C(=O)N[C@@H](CCCCN)C(=O)O)C(C)C [LGVVGSLASKVVPAVISKVK] | > 131 µM | ≥ 131 µM | – | – |
| CC[C@H](C)[C@H](NC(=O)CN)C(=O)NCC(=O)N[C@@H](Cc1cnc[nH]1)C(=O)N[C@@H](Cc1ccccc1)C(=O)N[C@@H](CC(C)C)C(=O)N[C@@H](Cc1cnc[nH]1)C(=O)N[C@@H](CCCCN)C(=O)N[C@H](C(=O)N[C@@H](CCCCN)C(=O)N[C@@H](CO)C(=O)N[C@@H](Cc1ccccc1)C(=O)NCC(=O)N[C@@H](CCCCN)C(=O)N[C@@H](CO)C(=O)N[C@@H](Cc1c[nH]c2ccccc12)C(=O)N[C@H](C(=O)NCC(=O)N[C@@H](CCC(=O)O)C(=O)N[C@H](C(=O)N[C@@H](CCSC)C(=O)N[C@@H](CC(N)=O)C(=O)N[C@@H](CO)C(N)=O)[C@@H](C)CC)[C@@H](C)CC)C(C)C [GIGHFLHKVKSFGKSWIGEIMNS] | 19 µM (≈ 48.9 µg/mL) | – | 19 µM (≈ 48.9 µg/mL) | MIC (Staphylococcus aureus): 76 µM (≈ 195 µg/mL) |
| CC[C@H](C)[C@H](NC(=O)[C@H](C)NC(=O)[C@H](CC(C)C)NC(=O)[C@H](CCCCN)NC(=O)[C@H](CC(C)C)NC(=O)[C@@H](NC(=O)[C@@H](NC(=O)[C@@H](N)CCCCN)[C@@H](C)CC)[C@@H](C)O)C(=O)N[C@@H](CCCCN)C(=O)N[C@@H](C)C(=O)N[C@@H](Cc1c[nH]c2ccccc12)C(=O)N[C@@H](CCCCN)C(=O)N[C@@H](CC(C)C)C(=O)N[C@@H](C)C(=O)N[C@@H](CC(C)C)C(=O)N[C@@H](CCCCN)C(=O)N[C@@H](C)C(=O)N[C@@H](C)C(N)=O [KITLKLAIKAWKLALKAA] | 5.3 µM (≈ 10.5 µg/mL) | – | 21.2 µM (≈ 42 µg/mL) | MIC (Staphylococcus aureus): 5.3 µM (≈ 10.5 µg/mL) |
| CC[C@H](C)[C@H](NC(=O)[C@H](Cc1ccccc1)NC(=O)[C@H](CO)NC(=O)[C@H](CCCCN)NC(=O)[C@H](Cc1c[nH]c2ccccc12)NC(=O)[C@@H](N)CCCCN)C(=O)N[C@@H](CCCCN)C(=O)N[C@@H](CCCCN)C(=O)N[C@@H](CC(C)C)C(=O)N[C@H](C(=O)N[C@@H](CO)C(=O)N[C@@H](CCCCN)C(=O)N[C@@H](C)C(=O)N[C@@H](CC(C)C)C(=O)N[C@@H](Cc1cnc[nH]1)C(=O)N[C@@H](CO)C(=O)N[C@@H](C)C(=O)N[C@@H](CCCCN)C(=O)N[C@@H](CCCCN)C(=O)N[C@@H](Cc1ccccc1)C(N)=O)[C@@H](C)O [KWKSFIKKLTSKALHSAKKF] | – | – | 2.63 µM (≈ 6.25 µg/mL) | – |
| CC[C@H](C)[C@H](NC(=O)[C@H](Cc1ccccc1)NC(=O)[C@H](CO)NC(=O)[C@H](CCCCN)NC(=O)[C@H](Cc1c[nH]c2ccccc12)NC(=O)[C@@H](N)CCCCN)C(=O)N[C@@H](CCCCN)C(=O)N[C@@H](CCCCN)C(=O)N[C@@H](CC(C)C)C(=O)N[C@H](C(=O)N[C@@H](CC(=O)O)C(=O)N[C@@H](CCCCN)C(=O)N[C@@H](Cc1ccccc1)C(=O)N[C@@H](CC(C)C)C(=O)N[C@@H](Cc1cnc[nH]1)C(=O)N[C@@H](CO)C(=O)N[C@@H](C)C(=O)N[C@@H](CCCCN)C(=O)N[C@@H](CCCCN)C(=O)N[C@@H](Cc1ccccc1)C(N)=O)[C@@H](C)O [KWKSFIKKLTDKFLHSAKKF] | – | – | 10.1 µM (≈ 25 µg/mL) | – |
| CC[C@H](C)[C@H](NC(=O)[C@@H](NC(=O)[C@H](C)NC(=O)[C@@H]1CCCN1C(=O)[C@@H](NC(=O)[C@@H](NC(=O)[C@H](CCCCN)NC(=O)[C@H](CO)NC(=O)[C@H](C)NC(=O)[C@H](CC(C)C)NC(=O)[C@H](CCCN=C(N)N)NC(=O)CNC(=O)[C@H](CC(C)C)NC(=O)[C@H](C)NC(=O)[C@@H](N)CO)C(C)C)C(C)C)C(C)C)C(=O)NCC(=O)N[C@@H](CCCCN)C(=O)N[C@H](C(=O)N[C@H](C(=O)N[C@H](C(=O)O)[C@@H](C)O)[C@@H](C)O)C(C)C [SALGRLASKVVPAVIGKVTT] | > 130 µM | ≥ 130 µM | – | – |
| CC[C@H](C)[C@H](NC(=O)[C@H](Cc1ccccc1)NC(=O)[C@H](CO)NC(=O)[C@H](CCCCN)NC(=O)[C@H](Cc1ccccc1)NC(=O)[C@@H](N)CCCCN)C(=O)N[C@@H](CCCCN)C(=O)N[C@@H](CCCCN)C(=O)N[C@@H](CC(C)C)C(=O)N[C@H](C(=O)N[C@@H](CO)C(=O)N[C@@H](CCCCN)C(=O)N[C@@H](Cc1ccccc1)C(=O)N[C@@H](CC(C)C)C(=O)N[C@@H](Cc1cnc[nH]1)C(=O)N[C@@H](CO)C(=O)N[C@@H](C)C(=O)N[C@@H](CCCCN)C(=O)N[C@@H](CCCCN)C(=O)N[C@@H](Cc1ccccc1)C(N)=O)[C@@H](C)O [KFKSFIKKLTSKFLHSAKKF] | – | – | 5.18 µM (≈ 12.5 µg/mL) | – |
| CC(C)C[C@H](NC(=O)[C@H](Cc1ccc(O)cc1)NC(=O)[C@@H]1CCCN1C(=O)[C@@H]1CCCN1C(=O)[C@H](CCCCN)NC(=O)[C@@H]1CCCN1C(=O)[C@@H](N)C(C)C)C(=O)N1CCC[C@H]1C(=O)N[C@@H](CCCN=C(N)N)C(=O)N1CCC[C@H]1C(=O)N[C@@H](CCCN=C(N)N)C(=O)N1CCC[C@H]1C(=O)N1CCC[C@H]1C(=O)N[C@@H](CCCN=C(N)N)C(=O)N[C@@H](CCCN=C(N)N)C(=O)N[C@@H](CCCCN)C(=O)N[C@@H](Cc1ccc(O)cc1)C(=O)N[C@@H](CC(N)=O)C(=O)N[C@@H](CCCN=C(N)N)C(N)=O [VPKPPYLPRPRPPRRKYNR] | – | – | – | MIC [1]: 13.4 µM (≈ 32 µg/mL); MIC (Escherichia coli UB1005): 0.544 µM (≈ 1.3 µg/mL); MIC [2]: 1.68 µM (≈ 4 µg/mL) |
| CC[C@H](C)[C@H](NC(=O)[C@H](CCCCN)NC(=O)[C@H](Cc1ccccc1)NC(=O)[C@H](CC(C)C)NC(=O)[C@@H]1CCCN1C(=O)[C@H](CO)NC(=O)[C@@H]1CCCN1C(=O)[C@@H](NC(=O)[C@@H](NC(=O)[C@H](C)NC(=O)[C@@H](NC(=O)CNC(=O)[C@H](CCCCN)NC(=O)CNC(=O)[C@H](C)NC(=O)[C@H](CCCN=C(N)N)NC(=O)[C@H](CCCCN)NC(=O)[C@@H](N)C(C)C)C(C)C)C(C)C)C(C)C)C(=O)N[C@H](C(=O)N[C@H](C(=O)O)C(C)C)C(C)C [VKRAGKGVAVVPSPLFKIVV] | > 124 µM | ≥ 124 µM | – | – |
